Laboratory results from paper PMC7156612, “Olinciguat, an Oral sGC Stimulator, Exhibits Diverse Pharmacology Across Preclinical Models of Cardiovascular, Metabolic, Renal, and Inflammatory Disease” (Frontiers in Pharmacology, 2020).
Entries after “also recorded” stand apart in the source; their conditions may differ. Marks after values point to notes of the source that are not given here.

Tests used:
[1] = ZSF1 rat model of metabolic syndrome and diabetic nephropathy; assay type: in vivo; conditions: male, rat, plasma, oral; obese ZSF1, enalapril + olinciguat 30 mg/kg/day in chow; read-out: average total plasma concentration of olinciguat at Week 10
Protocol: (§1) Lean (n=8, 370–420 g, 15 weeks) and obese (n=32, 500–630 g, 15 weeks) male ZSF1 rats were studied. Rats were treated with enalapril to reflect standard of care drug treatment for patients with diabetic kidney disease. Dose modeling based on allometric scaling relationships estimated that a 10 mg/day enalapril dose in humans (within usual dose range of 10–40 mg based on prescribing information) corresponds to 1 mg/kg/day in rats ([Nair and Jacob, 2016]). To measure hemodynamics in freely moving animals, ZSF1 obese rats were implanted with telemetry transmitters (HD-S10, Data Sciences International) at 9–10 weeks of age, as described above.
(§2) The study included a 10-day pretreatment period and a 10-week treatment period. There were five groups of rats in the study. The lean ZSF1 control group (lean control, n=8) and one obese group (obese control, n=8) were fed normal chow and drinking water throughout the 10-day pretreatment period and the 10-week treatment period. Three groups of obese rats were treated with enalapril in drinking water (equivalent to 3 mg/kg/day) throughout the 10-day pretreatment period and the 10-week treatment period. During the treatment period, these enalapril-treated obese rats were administered normal chow (ENP, n=8) or chow containing olinciguat targeting the dose of 10 mg/kg/day (ENP+OLI10, n=8) or 30 mg/kg/day (ENP+OLI30, n=8). Blood and 24-h urine samples were obtained from all animals at baseline (immediately prior to initiation of enalapril treatment), the end of the 10-day pretreatment period (Day 10) and at week 5 and week 10 of the treatment period. Plasma samples were obtained from all olinciguat-treated animals for measurement of olinciguat exposure at week 10. During week 9 of treatment, rats were fasted for 16 h overnight prior to determination of fasting blood glucose using the AlphaTRAK (Abbott) glucose monitoring system. Body weight was measured once every other week. At the end of the study, rats were anesthetized and perfused via the left ventricle with heparinized PBS (1 U/ml heparin) containing IBMX (1 mM). Organs were collected and weighed, and plasma was collected in EDTA tubes. For serum, blood was collected in serum separator tubes, maintained at room temperature for at least 30 min and centrifuged at 6,000 rpm for 10 min, and then stored at −80°C until analysis. Urine and serum samples were analyzed using the Randox Daytona Clinical Chemistry Analyzer (Randox, Kearneysville, WV) for urine protein, serum cholesterol and serum triglycerides. All measurements were performed in accordance with manufacturer's instructions.
(§3) For histology, one kidney from each rat was fixed in 10% formalin, then embedded in paraffin. Slides were prepared and stained with hematoxylin and eosin (H&E) and periodic-acid Schiff (PAS) for light microscopic analysis. Kidney sections were evaluated for the presence of glomerular pathology, tubular damage, interstitial inflammation, interstitial fibrosis, and vascular alterations. Severity-based scoring based on these evaluations was performed by a trained pathologist.
(§4) For the ZSF1 experiment, data are expressed as mean ± standard error of the mean (SEM).
(§5) In the ZSF1 study, change from baseline NT-proBNP, week 10 heart, kidney, and liver weight, urine volume, cholesterol, triglycerides, glucose, and renal histopathology sum score were analyzed by one-way ANOVA corrected for multiple comparisons using Tukey's method. Statistically significant differences vs the obese control and vs the ENP group are indicated in the results. MAP and UPE were analyzed by an ordinary two-way ANOVA with timepoint and treatment group as independent variables, followed by a Tukey's multiple comparisons test. Within each treatment group, significant differences vs baseline are indicated in the results. At week 10, statistically significant differences vs the obese control and vs the ENP control are also indicated in the results.

obese ZSF1 rats = assay: as above; assay type: in vivo
Protocol: as §1, §2, §3, §4, §5

[2] = tested on: vascular smooth muscle cells (VSMC) from rat aorta; assay: Rat aorta vascular smooth muscle cell proliferation (3H-thymidine incorporation); assay type: cell-based; conditions: Rattus norvegicus, VSMC
Protocol: We explored the concentration response of olinciguat, tadalafil, and olinciguat in the presence of 1 μM tadalafil on rat aorta vascular smooth muscle proliferation, Tadalafil was used because it is a once-daily PDE5 inhibitor that, like the three-times-daily PDE5 inhibitor sildenafil, is approved for treatment of PAH and ED. Vascular smooth muscle cells (VSMC) from rat aorta (Lonza, R-ASM-580) were plated into a 96-well plate at 15,000 cells per well in DMEM:F12 containing 20% FBS and GA-1000 ([Gentamicin, Amphotericin B], Lonza, CC-40863) for 24 h at 37°C. Medium was removed and cells were washed once with 100 μl DMEM:F12 before adding 100 μl of DMEM:F12 and incubating for 24 h to induce quiescence. Cells were then cultured for 24 h in DMEM:F12 supplemented with 5% FBS, in the presence of test articles (vehicle, olinciguat, tadalafil) with 10 µM DETA. In the last 6 h, 0.2 μCi of ^3H-thymidine (American Radiolabeled Chemicals, ART 0178A) was added to each well to measure DNA synthesis by thymidine incorporation. Cells were washed once with HBSS and then trypsinized and transferred into FB filter plates (Millipore, MADVNOB). A rapid-filtration technique using a filtration apparatus (Millipore, MAVM0960R) with vacuum aspiration was used to harvest and rinse labeled cells (6× with 0.2 ml of chilled water). The radioactivity bound to the filters was counted with 80 µl of liquid scintillant (PerkinElmer, UltraGold MV, 6013159) in a scintillation counter (Perkin Elmer Microbeta instrument).
In the vascular smooth muscle cell proliferation experiment, a comparison between the IC50's for olinciguat alone vs oliniciguat in the presence of 1 µM tadalafil was performed by a two-tailed t-test using Log EC50 best fit values and SEs determined from a four-parameter nonlinear curve fit, assuming n=60 degrees of freedom.

[3] = obese ZSF1, enalapril 3 mg/kg/day + olinciguat 30 mg/kg/day

NC(=O)[C@](O)(CNc1nc(-c2cc(-c3ccon3)n(Cc3ccccc3F)n2)ncc1F)C(F)(F)F [olinciguat, (R)-3,3,3-trifluoro-2-(((5-fluoro-2-(1-(2-fluorobenzyl)-5-(isoxazol-3-yl)-1H-pyrazol-3-yl)pyrimidin-4-yl)amino)methyl)-2-hydroxypropanamide]
concentration at 10 weeks [1]: 510 to 610 nM | cholesterol, percent lower than obese control (obese ZSF1 rats; [3]): 41% | increase of proteinuria over 10 weeks (obese ZSF1 rats; [3]): 56% | liver weight (obese ZSF1 rats; [3]): ↓ liver weight | serum cholesterol at week 10 (obese ZSF1 rats; [3]): ↓ cholesterol | serum triglycerides at week 10 (obese ZSF1 rats; [3]): ↓ triglycerides | total kidney weight (obese ZSF1 rats; [3]): did not develop renal hypertrophy; also recorded: ↓ kidney weight | triglycerides, percent lower than obese control (obese ZSF1 rats; [3]): 52% | fasting blood glucose (obese ZSF1 rats; obese ZSF1, enalapril 3 mg/kg/day + olinciguat 30 mg/kg/day, week 9): ↓glucose | UPE at week 10 (obese ZSF1 rats; obese ZSF1, enalapril 3 mg/kg/day + olinciguat 30 mg/kg/day, obese control 1.42 ± 0.12): ↓ proteinuria | renal pathology sum score (obese ZSF1 rats; obese ZSF1, enalapril 3 mg/kg/day + olinciguat 30 mg/kg/day, p < 0.0001 vs obese control): significantly improved the composite renal histopathological score; also recorded: ↓ renal histopath | Olinciguat concentration (free) (obese ZSF1 rats; obese ZSF1, olinciguat 30 mg/kg/day, total plasma concentration x 1.0% free): 5.1–6.1 nM^e | glucose, percent lower (obese ZSF1 rats; obese ZSF1, treatment with olinciguat (discussion)): 43% | difference in MAP at end of treatment between enalapril+olinciguat 30 mg/kg and enalapril monotherapy groups (obese ZSF1 rats; obese ZSF1, week 10): −8^d mmHg | IC50 ([2]; 5% FBS, 10 µM DETA, 3H-thymidine incorporation, 95% CI 22.4 to 39 nM, read-out: IC50, VSMC proliferation, olinciguat alone): 29.6 nM | EC50 ([2]; Table 2 summary, olinciguat alone, read-out: Rat vascular smooth muscle proliferation EC50, olinciguat concentration (range = 95% CI)): 22.4 to 39 nM
